16 compounds from patent US10231956B2, “3-(1H-pyrrolo[3,2-C]pyridin-2-YL)-1 H-pyrazolo[4,3-B]pyridines and therapeutic uses thereof” (Samumed, LLC, priority 2015, dated 2019) can be followed below.

The test system of experiment [1] is Wnt activity (Sp5-Luc reporter, SW480 colon carcinoma cells). Description: Sp5-Luc reporter gene screening assay for Wnt activity in SW480 cells. Particulars: Homo sapiens, luminescence, overnight incubation. Format: cell-based. The method in brief: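 Wnt-driven firefly luciferase in SW480 colon carcinoma cells reports pathway activity after overnight compound exposure (10 μM top concentration, 3-fold steps). Signal is normalized to DMSO controls.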
Background: In a reporter assay the amount or activity of a reporter protein is the signal.

The subject of experiment [2] is primary human mesenchymal stem cells (hMSCs). Kind of experiment: Induction of chondrogenesis in primary human mesenchymal stem cells (nodule count). Format: cell-based. Particulars: 144 h, 6 days; for Emax: TGF-β3 10 ng/mL as positive control, read-out: Max. Activity as % TGF-β3 activity; for EC50: concentration required to induce 50% levels of chondrogenesis vs TGF-β3, read-out: Conc (nM) of 50% TGF-β3 activity. The method, then: Representative compounds were screened using primary human mesenchymal stem cells (hMSCs) to determine their ability to induce chondrogenesis (process by which cartilage is developed).
Human Mesenchymal Stem Cell Culture: Primary human mesenchymal stem cells (hMSCs) were purchased from Lonza (Walkersville, Md.) and expanded in Mesenchymal Stem Cell Growth Media (Lonza). Cells between passage 3 and 6 were used for the experiments.
Compound Screening: Each compound was dissolved in DMSO as a 10 mM stock and used to prepare compound source plates. Serial dilution (1:3, 6-point dose-response curves from 2700 nM to 10 nM) and compound transfer was performed using the ECHO 550 (Labcyte, Sunnyvale, Calif.) into 96-well clear bottom assay plates (Greiner Bio-One) with appropriate DMSO backfill for a final DMSO concentration of 0.03%. hMSCs were plated at 20,000 cells/well in 250 μL/well Incomplete Chondrogenic Induction Medium (Lonza; DMEM, dexamethasone, ascorbate, insulin-transferrin-selenium [ITS supplement], gentamycin-amphotericin [GA-1000], sodium pyruvate, proline and L-glutamine). TGF-β3 (10 ng/mL) was used as a positive control for differentiation while negative control wells were treated with 75 nL DMSO for normalization and calculating EC50 values. Cells were incubated at 37° C. and 5% CO2 for 6 days. To image chondrogenic nodules, the cells were fixed using 4% formaldehyde (Electron Microscopy Sciences), and stained with 2 μg/mL Rhodamine B (Sigma-Aldrich) and 20 μM Nile Red (Sigma-Aldrich) [Johnson K., et. al, A Stem Cell-Based Approach to Cartilage Repair, Science, (2012), 336(6082), 717-721]. The nodules imaged (4 images per well at 4× magnification) by excitation at 531 nm and emission at 625 nm and quantified using the CellInsight CX5 (Thermo Scientific). Number of nodules in each well was normalized to the average of 3 DMSO treated wells on the same plate using Excel (Microsoft Inc.). The normalized averages (fold change over DMSO) of 3 replicate wells for each compound concentration were calculated. Due to solubility limitations of some of the compounds, curve fitting was incomplete leading to inaccurate EC50 determinations.
Using TGF-β3 as a positive control, the concentration of representative compounds required to induce 50% levels of chondrogenesis is reported. In addition, the maximum activity of each compound and the respective dose that each compound reached maximum chondrogenesis activity is reported.

pEC50: −log10 of the molar value.

For the compound `O=C(Nc1cncc(-c2ccc3[nH]nc(-c4cc5c(-c6ccccc6F)nccc5[nH]4)c3n2)c1)C1CC1` [Compound 76, N-(5-(3-(4-(2-Fluorophenyl)-1H-pyrrolo[3,2-c]pyridin-2-yl)-1H-pyrazolo [4,3-b]pyridin-5-yl)pyridin-3-yl)cyclopropanecarboxamide], the pEC50 – broadly, −log10 of the EC50, conventionally taken in molar units – in experiment [1] is 6.16. Besides, the Emax in experiment [2] was 25%.
In experiment [1], `CN1CCN(c2nccc3[nH]c(-c4n[nH]c5ccc(-c6cncc(CN7CCCCC7)c6)nc45)cc23)CC1` [Compound 239, 3-(4-(4-methylpiperazin-1-yl)-1H-pyrrolo[3,2-c]pyridin-2-yl)-5-(5-(piperidin-1-ylmethyl)pyridin-3-yl)-1H-pyrazolo[4,3-b]pyridine] had a pEC50 of 5.37. Also, in experiment [2], the Emax is 71% and the EC50 was 10 nM.
In experiment [1], `c1ccc(-c2ccc3[nH]nc(-c4cc5c(N6CCCCC6)nccc5[nH]4)c3n2)nc1` [Compound 196, 3-(4-(Piperidin-1-yl)-1H-pyrrolo[3,2-c]pyridin-2-yl)-5-(pyridin-2-yl)-1H-pyrazolo[4,3-b]pyridine] showed a pEC50 of 5.47. Moreover, in experiment [2], the Emax turned out to be 102% and the EC50 turned out to be 100 nM.
Compound `CN1CCN(c2nccc3[nH]c(-c4n[nH]c5ccc(-c6cncnc6)nc45)cc23)CC1` [Compound 251, 3-(4-(4-Methylpiperazin-1l-yl)-1H-pyrrolo[3,2-c]pyridin-2-yl)-5-(pyrimidin-5-yl)-1H-pyrazolo[4,3-b]pyridine] had a pEC50 in experiment [1] of 5.51. Further, in experiment [2], the Emax is 56% and the EC50 stood at 100 nM.
Compound `CN(C)c1cncc(-c2ccc3[nH]nc(-c4cc5c(-c6cccc(F)c6)nccc5[nH]4)c3n2)c1` [Compound 7, 5-(3-(4-(3-Fluorophenyl)-1H-pyrrolo[3,2-c]pyridin-2-yl)-1H-pyrazolo[4,3-b]pyridin-5-yl)-N,N-dimethylpyridin-3-amine] had a pEC50 in experiment [1] of 6.13. In experiment [2], the Emax was 153% and the EC50 was 2700 nM.
With `CN(C)Cc1cncc(-c2ccc3[nH]nc(-c4cc5c(N6CCCCC6)nccc5[nH]4)c3n2)c1` [Compound 181, N,N-Dimethyl-1-(5-(3-(4-(piperidin-1l-yl)-1H-pyrrolo[3,2-c]pyridin-2-yl)-1H-pyrazolo[4,3-b]pyridin-5-yl)pyridin-3-yl)methanamine], in experiment [1], the pEC50 is 5.38. The Emax in experiment [2] turned out to be 23%.
`FC1(F)CCN(Cc2cncc(-c3ccc4[nH]nc(-c5cc6cnccc6[nH]5)c4n3)c2)C1` [Compound 278, 5-(5-((3,3-Difluoropyrrolidin-1-yl)methyl)pyridin-3-yl)-3-(1H-pyrrolo[3,2-c]pyridin-2-yl)-1H-pyrazolo[4,3-b]pyridine] showed a pEC50 in experiment [1] of 7.28. Besides, in experiment [2], the Emax was 134% and the EC50 came to 300 nM.
Compound `Cc1ccncc1-c1ccc2[nH]nc(-c3cc4c(N5CCN(C)CC5)nccc4[nH]3)c2n1` [Compound 229, 3-(4-(4-Methylpiperazin-1l-yl)-1H-pyrrolo[3,2-c]pyridin-2-yl)-5-(4-methylpyridin-3-yl)-1H-pyrazolo[4,3-b]pyridine] had a pEC50 in experiment [1] of 6.08. Further, in experiment [2], the Emax stood at 87% and the EC50 amounted to 2700 nM.
Turning to `c1cc2[nH]c(-c3n[nH]c4ccc(-c5cncc(OCCN6CCCC6)c5)nc34)cc2cn1` [Compound 658, 5-(5-(2-(Pyrrolidin-1-yl)ethoxy)pyridin-3-yl)-3-(1H-pyrrolo[3,2-c]pyridin-2-yl)-1H-pyrazolo[4,3-b]pyridine], in experiment [1], the pEC50 was 5.41. Besides, in experiment [2], the Emax stood at 23%.
In the same order, the values of `CC(C)CC(=O)Nc1cncc(-c2ccc3[nH]nc(-c4cc5c(-c6cc(F)cc(CNS(C)(=O)=O)c6)nccc5[nH]4)c3n2)c1` [Compound 478, N-(5-(3-(4-(3-Fluoro-5-(methylsulfonamidomethyl)phenyl)-1H-pyrrolo[3,2-c]pyridin-2-yl)-1H-pyrazolo[4,3-b]pyridin-5-yl)pyridin-3-yl)-3-methylbutanamide] are 6.20 and 33%.
With `Fc1cccc(-c2nccc3[nH]c(-c4n[nH]c5ccc(-c6cccnc6)nc45)cc23)c1` [Compound 4, 3-(4-(3-Fluorophenyl)-1H-pyrrolo[3,2-c]pyridin-2-yl)-5-(pyridin-3-yl)-1H-pyrazolo[4,3-b]pyridine], in experiment [1], the pEC50 is 5.83. Also, the Emax in experiment [2] came out at 45%.
For the compound `FC1(F)CCN(Cc2cncc(-c3ccc4[nH]nc(-c5cc6c(N7CCCCC7)nccc6[nH]5)c4n3)c2)C1` [Compound 194, 5-(5-((3,3-Difluoropyrrolidin-1-yl)methyl)pyridin-3-yl)-3-(4-(piperidin-1-yl)-1H-pyrrolo[3,2-c]pyridin-2-yl)-1H-pyrazolo[4,3-b]pyridine], the pEC50 in experiment [1] was 5.44. For the same compound, in experiment [2], the Emax stood at 123% and the EC50 stood at 30 nM.
On to `Fc1ccc(-c2nccc3[nH]c(-c4n[nH]c5ccc(-c6cncc(CN7CCC(F)(F)C7)c6)nc45)cc23)cc1` [Compound 54, 5-(5-((3,3-Difluoropyrrolidin-1-yl)methyl)pyridin-3-yl)-3-(4-(4-fluorophenyl)-1H-pyrrolo[3,2-c]pyridin-2-yl)-1H-pyrazolo[4,3-b]pyridine], for which the pEC50 in experiment [1] is 6.22. Besides, in experiment [2], the Emax came to 106% and the EC50 was found to be 900 nM.
In the same order, the values of `c1cc2[nH]c(-c3n[nH]c4ccc(-c5cncnc5)nc34)cc2cn1` [Compound 279, 5-(Pyrimidin-5-yl)-3-(1H-pyrrolo[3,2-c]pyridin-2-yl)-1H-pyrazolo[4,3-b]pyridine] are 5.63, 53% and 2700 nM.
With `CN(C)Cc1cncc(-c2ccc3[nH]nc(-c4cc5c(-c6ccccc6F)nccc5[nH]4)c3n2)c1` [Compound 69, 1-(5-(3-(4-(2-Fluorophenyl)-1H-pyrrolo[3,2-c]pyridin-2-yl)-1H-pyrazolo [4,3-b]pyridin-5-yl)pyridin-3-yl)-N,N-dimethylmethanamine], the pEC50 in experiment [1] was 5.92. The Emax in experiment [2] stood at 7%.
In the same order, the values of `CC(C)CC(=O)Nc1cncc(-c2ccc3[nH]nc(-c4cc5c(-c6ccccc6F)nccc5[nH]4)c3n2)c1` [Compound 58, N-(5-(3-(4-(2-Fluorophenyl)-1H-pyrrolo[3,2-c]pyridin-2-yl)-1H-pyrazolo [4,3-b]pyridin-5-yl)pyridin-3-yl)-3-methylbutanamide] are 6.19 and 36%.
